Key:
Assay in all cases: Post-emergence test, weed control effect
Assay type in all cases: in vivo
Settings in all cases: after 3 weeks
Rorippa indica = tested on: Rorippa indica
How it was run: (§1)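 Seeds are sown in soil pots and raised in the greenhouse until the 2-3 leaf stage. Plants are then sprayed with compound dissolved in acetone with Tween-80, diluted in water and supplemented with 80% vegetable oil methyl ester synergist at 1500 g/ha, and fresh weight inhibition is rated 0-10 three weeks later.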

Amaranthus retroflexus = tested on: Amaranthus retroflexus
How it was run: as §1

Veronica polita = tested on: Veronica polita
How it was run: as §1

Chenopodiaceae = tested on: Chenopodiaceae
How it was run: as §1

O=C1CCCCN1C(=O)Oc1cc(C(F)(F)F)nnc1-c1ccc(F)cc1 [Compound 1-69]
weed control effect, Rorippa indica (activity level) (Rorippa indica; Dose 3000 g/ha): 10
weed control effect, Amaranthus retroflexus (activity level) (Amaranthus retroflexus; Dose 3000 g/ha): 10
weed control effect, Veronica polita (activity level) (Veronica polita; Dose 3000 g/ha): 10
weed control effect, Chenopodiaceae (activity level) (Chenopodiaceae; Dose 3000 g/ha): 10

CCSc1ccc(-c2nnc(C(F)(F)F)cc2O)cn1 [Compound 236]
weed control effect (activity level), Rorippa indica (Rorippa indica; dose 2000 g/ha): 10
weed control effect (activity level), Amaranthus retroflexus (Amaranthus retroflexus; dose 2000 g/ha): 10
weed control effect (activity level), Veronica polita (Veronica polita; dose 2000 g/ha): 10
weed control effect (activity level), Chenopodiaceae (Chenopodiaceae; dose 2000 g/ha): 10

Oc1cc(C(F)(F)F)nnc1-c1c(Cl)cccc1Cl [Compound 41]
weed control effect (activity level), Rorippa indica (Rorippa indica; dose 1000 g/ha): 10
weed control effect (activity level), Amaranthus retroflexus (Amaranthus retroflexus; dose 1000 g/ha): 10
weed control effect (activity level), Veronica polita (Veronica polita; dose 1000 g/ha): 10
weed control effect (activity level), Chenopodiaceae (Chenopodiaceae; dose 1000 g/ha): 10

N#Cc1ncccc1-c1nnc(C(F)(F)F)cc1O [Compound 979]
weed control effect (activity level), Rorippa indica (Rorippa indica; Dose 3000 g/ha): 10
weed control effect (activity level), Amaranthus retroflexus (Amaranthus retroflexus; Dose 3000 g/ha): 10
weed control effect (activity level), Veronica polita (Veronica polita; Dose 3000 g/ha): 10
weed control effect (activity level), Chenopodiaceae (Chenopodiaceae; Dose 3000 g/ha): 10

C#Cc1ccc(-c2nnc(C(F)(F)F)cc2O)nn1 [Compound 349]
weed control effect (activity level), Rorippa indica (Rorippa indica; dose 2000 g/ha): 10
weed control effect (activity level), Amaranthus retroflexus (Amaranthus retroflexus; dose 2000 g/ha): 10
weed control effect (activity level), Veronica polita (Veronica polita; dose 2000 g/ha): 10
weed control effect (activity level), Chenopodiaceae (Chenopodiaceae; dose 2000 g/ha): 10

Oc1cc(C(F)(F)F)nnc1-c1cccc(Cl)c1 [Compound 27]
weed control effect (activity level), Rorippa indica (Rorippa indica; dose 1000 g/ha): 10
weed control effect (activity level), Amaranthus retroflexus (Amaranthus retroflexus; dose 1000 g/ha): 10
weed control effect (activity level), Veronica polita (Veronica polita; dose 1000 g/ha): 10
weed control effect (activity level), Chenopodiaceae (Chenopodiaceae; dose 1000 g/ha): 10

CC(C)c1ccc(-c2nnc(C(F)(F)F)cc2O)cc1 [Compound 8]
weed control effect (activity level), Rorippa indica (Rorippa indica; dose 2000 g/ha): 10
weed control effect (activity level), Amaranthus retroflexus (Amaranthus retroflexus; dose 2000 g/ha): 10
weed control effect (activity level), Veronica polita (Veronica polita; dose 2000 g/ha): 10
weed control effect (activity level), Chenopodiaceae (Chenopodiaceae; dose 2000 g/ha): 8 (Level 8: above 80% growth inhibition rate)

CC(=O)CC(=O)Oc1cc(C(F)(F)F)nnc1-c1ccc(F)cc1 [Compound 1-76]
weed control effect, Rorippa indica (activity level) (Rorippa indica; Dose 3000 g/ha): 10
weed control effect, Amaranthus retroflexus (activity level) (Amaranthus retroflexus; Dose 3000 g/ha): 10
weed control effect, Veronica polita (activity level) (Veronica polita; Dose 3000 g/ha): 10
weed control effect, Chenopodiaceae (activity level) (Chenopodiaceae; Dose 3000 g/ha): 10

COc1cnn(C)c1-c1nnc(C(F)(F)F)cc1O [Compound 811]
weed control effect (activity level), Rorippa indica (Rorippa indica; Dose 3000 g/ha): 10
weed control effect (activity level), Amaranthus retroflexus (Amaranthus retroflexus; Dose 3000 g/ha): 10
weed control effect (activity level), Veronica polita (Veronica polita; Dose 3000 g/ha): 10
weed control effect (activity level), Chenopodiaceae (Chenopodiaceae; Dose 3000 g/ha): 10

CCCC/C(C)=N\Oc1cc(C(F)(F)F)nnc1-c1ccc(S(C)(=O)=O)cc1 [Compound 1-175]
weed control effect, Rorippa indica (activity level) (Rorippa indica; Dose 3000 g/ha): 10
weed control effect, Amaranthus retroflexus (activity level) (Amaranthus retroflexus; Dose 3000 g/ha): 10
weed control effect, Veronica polita (activity level) (Veronica polita; Dose 3000 g/ha): 10
weed control effect, Chenopodiaceae (activity level) (Chenopodiaceae; Dose 3000 g/ha): 10

CC(C)OC(=O)Nc1ccc(-c2nnc(C(F)(F)F)cc2O)cn1 [Compound 323]
weed control effect (activity level), Rorippa indica (Rorippa indica; dose 2000 g/ha): 10
weed control effect (activity level), Amaranthus retroflexus (Amaranthus retroflexus; dose 2000 g/ha): 10
weed control effect (activity level), Veronica polita (Veronica polita; dose 2000 g/ha): 10
weed control effect (activity level), Chenopodiaceae (Chenopodiaceae; dose 2000 g/ha): 10

Oc1cc(C(F)(F)F)nnc1-c1ccc2occc2c1 [Compound 595]
weed control effect (activity level), Rorippa indica (Rorippa indica; Dose 3000 g/ha): 10
weed control effect (activity level), Amaranthus retroflexus (Amaranthus retroflexus; Dose 3000 g/ha): 10
weed control effect (activity level), Veronica polita (Veronica polita; Dose 3000 g/ha): 10
weed control effect (activity level), Chenopodiaceae (Chenopodiaceae; Dose 3000 g/ha): 10

Oc1cc(C(F)(F)F)nnc1-c1cc(Cl)ncc1Cl [Compound 224]
weed control effect (activity level), Rorippa indica (Rorippa indica; dose 2000 g/ha): 10
weed control effect (activity level), Amaranthus retroflexus (Amaranthus retroflexus; dose 2000 g/ha): 10
weed control effect (activity level), Veronica polita (Veronica polita; dose 2000 g/ha): 10
weed control effect (activity level), Chenopodiaceae (Chenopodiaceae; dose 2000 g/ha): 10

Cc1ccc(-c2nnc(C(F)(F)F)cc2OC(=O)OCC(C)(C)C)c([N+](=O)[O-])c1 [Compound 1-33]
weed control effect, Rorippa indica (activity level) (Rorippa indica; Dose 3000 g/ha): 10
weed control effect, Amaranthus retroflexus (activity level) (Amaranthus retroflexus; Dose 3000 g/ha): 10
weed control effect, Veronica polita (activity level) (Veronica polita; Dose 3000 g/ha): 10
weed control effect, Chenopodiaceae (activity level) (Chenopodiaceae; Dose 3000 g/ha): 10

Cc1ccc(S(=O)(=O)Oc2cc(C(F)(F)F)nnc2-c2ccc(F)c(F)c2)cc1 [Compound 1-127]
weed control effect, Rorippa indica (activity level) (Rorippa indica; Dose 3000 g/ha): 10
weed control effect, Amaranthus retroflexus (activity level) (Amaranthus retroflexus; Dose 3000 g/ha): 10
weed control effect, Veronica polita (activity level) (Veronica polita; Dose 3000 g/ha): 10
weed control effect, Chenopodiaceae (activity level) (Chenopodiaceae; Dose 3000 g/ha): 10

O=C(Oc1cc(C(F)(F)F)nnc1-c1ccc(F)cc1)N1CCOCC1 [Compound 1-68]
weed control effect, Rorippa indica (activity level) (Rorippa indica; Dose 3000 g/ha): 10
weed control effect, Amaranthus retroflexus (activity level) (Amaranthus retroflexus; Dose 3000 g/ha): 10
weed control effect, Veronica polita (activity level) (Veronica polita; Dose 3000 g/ha): 10
weed control effect, Chenopodiaceae (activity level) (Chenopodiaceae; Dose 3000 g/ha): 10

O=C(Oc1cc(C(F)(F)F)nnc1-c1ccc(F)c(F)c1)N1CCOCC1 [Compound 1-66]
weed control effect, Rorippa indica (activity level) (Rorippa indica; Dose 3000 g/ha): 10
weed control effect, Amaranthus retroflexus (activity level) (Amaranthus retroflexus; Dose 3000 g/ha): 10
weed control effect, Veronica polita (activity level) (Veronica polita; Dose 3000 g/ha): 10
weed control effect, Chenopodiaceae (activity level) (Chenopodiaceae; Dose 3000 g/ha): 10

CCCCCCCCC(=S)Oc1cc(C(F)(F)F)nnc1-c1ccc(F)cc1 [Compound 1-154]
weed control effect, Rorippa indica (activity level) (Rorippa indica; Dose 3000 g/ha): 10
weed control effect, Amaranthus retroflexus (activity level) (Amaranthus retroflexus; Dose 3000 g/ha): 10
weed control effect, Veronica polita (activity level) (Veronica polita; Dose 3000 g/ha): 10
weed control effect, Chenopodiaceae (activity level) (Chenopodiaceae; Dose 3000 g/ha): 10
